Experimental data as given in patent US20160354429A1, “Use of Melanocortins to Treat Insulin Sensitivity” (Ipsen Pharma S.A.S., priority 2007, published 2016).
Bridge positions count the residues as written; N and C are the ends. Square brackets hold non-standard residues; d marks the D form. Peptide text beside a SMILES is read from it. GABA = NCCCC(=O)O

Tests used:
hMC5-R [1] = molecular target: T1, hMC5-R (Homo sapiens, UniProt P33032); experiment: cyclic AMP bioassay, hMC5-R; assay type: cell-based
T1 construct: expressed in transfected cells
Description: Intracellular cyclic AMP (cAMP) levels were determined by an electrochemiluminescence (ECL) assay (Meso Scale Discovery®, Gaithersburg, Md.; referred to hereinafter as MSD). […] Transgenic CHO-K1 cells stably expressing hMC receptor subtypes 1, 3, 4 or 5 were dispensed at a density of approximately 7,000 cells/well in 384-well Multi-Array® plates (MSD) containing integrated carbon electrodes and coated with anti-cAMP antibody. Increasing concentrations of the test compounds were added and the cells were incubated for approximately 40 minutes at approximately 37° C. […] At the end of the second incubation period read buffer (Tris-buffered solution containing an ECL co-reactant and Triton X-100 at ph 7.8) was added and the cAMP levels in the cell lysates were immediately determined by ECL detection with a Sector Imager 6000 Reader® (MSD). Data were analyzed using a computer-assisted non-linear regression analysis (XL fit; IDBS) and reported as either an EC50 value or a Kb value.

hMC1-R = molecular target: T2, hMC1-R (Homo sapiens, UniProt Q01726); experiment: Radioligand binding assay, hMC1-R; details: competition with [125I]-NDP-α-MSH, CHO-K1 cell membranes
T2 construct: expressed in transfected cells

hMC4-R = molecular target: T3, hMC4-R (Homo sapiens, UniProt P32245); experiment: Radioligand binding assay, hMC4-R; details: competition with [125I]-NDP-α-MSH, CHO-K1 cell membranes
T3 construct: expressed in transfected cells

hMC3-R = molecular target: T4, hMC3-R (Homo sapiens, UniProt P41968); experiment: Radioligand binding assay, hMC3-R; details: competition with [125I]-NDP-α-MSH, CHO-K1 cell membranes
T4 construct: expressed in transfected cells

hMC5-R [2] = molecular target: T1, hMC5-R; experiment: Radioligand binding assay, hMC5-R; details: competition with [125I]-NDP-α-MSH, CHO-K1 cell membranes
Description: Cellular membranes used for the in vitro receptor binding assays were obtained from transgenic CHO-K1 cells stably expressing hMC-R receptor subtypes 1, 3, 4 or 5. […] The pellets were resuspended in the same buffer and centrifuged at 50,000 g for 10 minutes at approximately 4° C. The washed pellets containing the cellular membranes were stored at approximately −80° C.
Filters were washed three times with 50 mM Tris-HCl at pH 7.4 at a temperature of approximately 0-4° C. and then assayed for radioactivity using a Packard Topcount® scintillation counter. Binding data were analyzed by computer-assisted non-linear regression analysis (XL fit; IDBS).

T2 sequence (Q01726 whole entry): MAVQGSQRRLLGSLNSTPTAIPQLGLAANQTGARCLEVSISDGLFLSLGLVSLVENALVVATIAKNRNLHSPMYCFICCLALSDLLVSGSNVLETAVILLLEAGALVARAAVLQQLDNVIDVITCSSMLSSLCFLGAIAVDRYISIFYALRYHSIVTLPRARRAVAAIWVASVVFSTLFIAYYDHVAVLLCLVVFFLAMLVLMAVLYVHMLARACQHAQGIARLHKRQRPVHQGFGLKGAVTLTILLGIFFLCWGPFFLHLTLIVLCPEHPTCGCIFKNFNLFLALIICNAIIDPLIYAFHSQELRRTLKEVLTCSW
T1 sequence (P33032 whole entry): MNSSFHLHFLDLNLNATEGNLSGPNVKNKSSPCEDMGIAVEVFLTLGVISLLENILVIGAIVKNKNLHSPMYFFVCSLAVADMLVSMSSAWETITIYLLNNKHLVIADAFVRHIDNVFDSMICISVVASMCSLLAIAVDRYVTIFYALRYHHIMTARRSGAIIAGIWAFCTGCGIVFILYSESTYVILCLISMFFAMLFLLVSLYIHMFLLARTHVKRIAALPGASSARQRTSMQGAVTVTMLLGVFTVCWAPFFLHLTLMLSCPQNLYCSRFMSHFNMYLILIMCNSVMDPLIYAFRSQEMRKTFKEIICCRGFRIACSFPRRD
T3 sequence (P32245 whole entry): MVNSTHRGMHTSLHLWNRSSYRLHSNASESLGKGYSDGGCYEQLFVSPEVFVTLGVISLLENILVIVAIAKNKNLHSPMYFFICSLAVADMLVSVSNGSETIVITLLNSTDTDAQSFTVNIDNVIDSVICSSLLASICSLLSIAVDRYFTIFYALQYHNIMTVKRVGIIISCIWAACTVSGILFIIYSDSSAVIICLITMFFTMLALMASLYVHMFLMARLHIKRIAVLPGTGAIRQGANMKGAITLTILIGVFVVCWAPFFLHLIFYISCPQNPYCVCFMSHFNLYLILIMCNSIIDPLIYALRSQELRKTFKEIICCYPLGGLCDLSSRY
T4 sequence (P41968 whole entry): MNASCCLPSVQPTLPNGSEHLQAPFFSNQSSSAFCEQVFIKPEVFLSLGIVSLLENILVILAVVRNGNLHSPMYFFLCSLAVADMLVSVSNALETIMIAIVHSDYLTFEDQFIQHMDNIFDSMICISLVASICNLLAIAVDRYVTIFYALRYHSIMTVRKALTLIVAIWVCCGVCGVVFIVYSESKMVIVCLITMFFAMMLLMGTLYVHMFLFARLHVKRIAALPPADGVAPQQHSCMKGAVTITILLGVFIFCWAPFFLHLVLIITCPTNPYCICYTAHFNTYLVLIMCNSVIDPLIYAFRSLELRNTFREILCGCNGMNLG

SMILES	EC50 (hMC5-R [1]) [nM]	Ki (hMC1-R) [nM]	Ki (hMC4-R) [nM]	Ki (hMC3-R) [nM]	Ki (hMC5-R [2]) [nM]
CC(=O)N[C@@H](CCCNC(=N)N)C(=O)N[C@H]1CSSC(C)(C)[C@@H](C(N)=O)NC(=O)[C@H](Cc2c[nH]c3ccccc23)NC(=O)[C@H](CCCNC(=N)N)NC(=O)[C@@H](Cc2ccccc2)NC(=O)[C@H](Cc2c[nH]cn2)NC(=O)[C@@H](C)NC1=O [Ac-Arg-c(Cys-D-Ala-His-D-Phe-Arg-Trp-Pen)-NH2]	≥ 10000	–	–	–	–
CCCC[C@H](NC(C)=O)C(=O)N[C@H]1CSSC[C@@H](C(N)=O)NC(=O)CCNC(=O)[C@H](Cc2c[nH]c3ccccc23)NC(=O)[C@H](CCCNC(=N)N)NC(=O)[C@@H](Cc2ccccc2)NC(=O)[C@H](Cc2c[nH]cn2)NC(=O)[C@@H](C)NC1=O [Ac-Nle-c(Cys-D-Ala-His-D-Phe-Arg-Trp-β-Ala-Cys)-NH2]	–	0.995	–	–	–
CC(=O)N[C@@H](Cc1ccccc1)C(=O)N[C@H]1CSSC[C@@H](C(N)=O)NC(=O)CCCNC(=O)[C@H](Cc2c[nH]c3ccccc23)NC(=O)[C@H](CCCNC(=N)N)NC(=O)[C@@H](Cc2ccccc2)NC(=O)[C@H](Cc2c[nH]cn2)NC1=O [Ac-Phe-c(Cys-His-D-Phe-Arg-Trp-Gaba-Cys)-NH2] (Ac-FCH[dF]RW[GABA]C-NH2; disulfide 2-8)	–	0.254	2.13	18.5	0.714
